This is an account of results in patent US11420958B2, “Aryl and heteroaryl substituted indole compounds” (BRISTOL-MYERS SQUIBB COMPANY, priority 2017, dated 2022).

SMILES strings stand for the structures.

A word on the IC50: it is the midpoint of a concentration-inhibition curve. Read a high IC50 as weaker potency in that assay.

What all share (format): cell-based
The target of one assay is human TLR8 (Homo sapiens (Human), UniProt Q9NR97). Description: TLR8 inhibition reporter assay (HEK-Blue, SEAP). Conditions: HEK-Blue cells overexpressing human TLR8, R848 15.9 μM stimulation. How it is done:
(§1) TLR7/8/9 Inhibition Reporter Assays
(§2) HEK-Blue™-cells (Invivogen) overexpressing human TLR7, TLR8 or TLR9 receptors were used for screening inhibitors of these receptors using an inducible SEAP (secreted embryonic alkaline phosphatase) reporter gene under the control of the IFN-β minimal promoter fused to five NF-κc Band AP-1-binding sites. Briefly, cells are seeded into Greiner 384 well plates (15000 cells per well for TLR7, 20,000 for TLR8 and 25,000 for TLR9) and then treated with test compounds in DMSO to yield a final dose response concentration range of 0.05 nM-50 μM. After a 30 minute compound pre-treatment at room temperature, the cells are then stimulated with a TLR7 ligand (gardiquimod at a final concentration of 7.5 μM), TLR8 ligand (R848 at a final concentration of 15.9 μM) or TLR9 ligand (ODN2006 at final concentration of 5 nM) to activate NF-κB and AP-1 which induce the production of SEAP. After a 22 hour incubation at 37° C., 5% CO2, SEAP levels are determined with the addition of HEK-Bue™ Detection reagent (Invivogen), a cell culture medium that allows for detection of SEAP, according to manufacturer's specifications. The percent inhibition is determined as the % reduction in the HEK-Blue signal present in wells treated with agonist plus DMSO alone compared to wells treated with a known inhibitor.
In general terms: A reporter such as luciferase makes a cellular process visible.

The target in a further assay is human TLR9 (Homo sapiens (Human), UniProt Q9NR96). The assay can be described thus: TLR9 inhibition reporter assay (HEK-Blue, SEAP). Conditions: HEK-Blue cells overexpressing human TLR9, ODN2006 5 nM stimulation. The protocol:
as §1, §2

For another assay, the target named is human TLR7 (Homo sapiens (Human), UniProt Q9NYK1). Description: TLR7 inhibition reporter assay (HEK-Blue, SEAP). As to conditions: HEK-Blue cells overexpressing human TLR7, gardiquimod 7.5 μM stimulation. How it is done: as §1, §2
Chain of human TLR7 (Q9NYK1 27-1049): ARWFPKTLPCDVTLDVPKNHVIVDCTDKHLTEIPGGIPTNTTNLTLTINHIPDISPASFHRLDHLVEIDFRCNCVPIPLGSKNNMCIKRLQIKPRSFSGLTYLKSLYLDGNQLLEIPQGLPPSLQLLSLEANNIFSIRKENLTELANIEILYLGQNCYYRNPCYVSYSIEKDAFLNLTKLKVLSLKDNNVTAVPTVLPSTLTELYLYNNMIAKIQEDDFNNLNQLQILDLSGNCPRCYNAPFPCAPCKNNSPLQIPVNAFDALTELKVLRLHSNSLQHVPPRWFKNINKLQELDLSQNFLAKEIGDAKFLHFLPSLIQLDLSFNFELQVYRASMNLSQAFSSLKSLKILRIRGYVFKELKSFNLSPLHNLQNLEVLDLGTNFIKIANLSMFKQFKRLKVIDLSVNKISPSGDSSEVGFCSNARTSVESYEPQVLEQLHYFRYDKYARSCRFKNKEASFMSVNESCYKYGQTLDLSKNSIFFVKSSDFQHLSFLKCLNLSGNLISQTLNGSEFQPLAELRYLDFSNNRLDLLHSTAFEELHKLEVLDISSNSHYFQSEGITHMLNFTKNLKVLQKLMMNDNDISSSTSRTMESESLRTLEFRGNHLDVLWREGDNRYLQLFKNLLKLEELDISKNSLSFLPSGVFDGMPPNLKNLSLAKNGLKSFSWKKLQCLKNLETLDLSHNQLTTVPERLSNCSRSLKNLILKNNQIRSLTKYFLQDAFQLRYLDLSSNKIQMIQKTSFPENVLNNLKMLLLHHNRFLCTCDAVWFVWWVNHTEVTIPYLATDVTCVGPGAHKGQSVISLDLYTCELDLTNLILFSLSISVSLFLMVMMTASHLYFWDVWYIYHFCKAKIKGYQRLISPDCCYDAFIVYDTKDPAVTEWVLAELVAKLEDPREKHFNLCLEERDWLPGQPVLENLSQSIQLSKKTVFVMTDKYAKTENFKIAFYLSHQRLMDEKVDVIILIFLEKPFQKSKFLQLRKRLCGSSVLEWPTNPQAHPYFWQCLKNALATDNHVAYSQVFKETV

Chain of human TLR8 (Q9NR97 27-1041): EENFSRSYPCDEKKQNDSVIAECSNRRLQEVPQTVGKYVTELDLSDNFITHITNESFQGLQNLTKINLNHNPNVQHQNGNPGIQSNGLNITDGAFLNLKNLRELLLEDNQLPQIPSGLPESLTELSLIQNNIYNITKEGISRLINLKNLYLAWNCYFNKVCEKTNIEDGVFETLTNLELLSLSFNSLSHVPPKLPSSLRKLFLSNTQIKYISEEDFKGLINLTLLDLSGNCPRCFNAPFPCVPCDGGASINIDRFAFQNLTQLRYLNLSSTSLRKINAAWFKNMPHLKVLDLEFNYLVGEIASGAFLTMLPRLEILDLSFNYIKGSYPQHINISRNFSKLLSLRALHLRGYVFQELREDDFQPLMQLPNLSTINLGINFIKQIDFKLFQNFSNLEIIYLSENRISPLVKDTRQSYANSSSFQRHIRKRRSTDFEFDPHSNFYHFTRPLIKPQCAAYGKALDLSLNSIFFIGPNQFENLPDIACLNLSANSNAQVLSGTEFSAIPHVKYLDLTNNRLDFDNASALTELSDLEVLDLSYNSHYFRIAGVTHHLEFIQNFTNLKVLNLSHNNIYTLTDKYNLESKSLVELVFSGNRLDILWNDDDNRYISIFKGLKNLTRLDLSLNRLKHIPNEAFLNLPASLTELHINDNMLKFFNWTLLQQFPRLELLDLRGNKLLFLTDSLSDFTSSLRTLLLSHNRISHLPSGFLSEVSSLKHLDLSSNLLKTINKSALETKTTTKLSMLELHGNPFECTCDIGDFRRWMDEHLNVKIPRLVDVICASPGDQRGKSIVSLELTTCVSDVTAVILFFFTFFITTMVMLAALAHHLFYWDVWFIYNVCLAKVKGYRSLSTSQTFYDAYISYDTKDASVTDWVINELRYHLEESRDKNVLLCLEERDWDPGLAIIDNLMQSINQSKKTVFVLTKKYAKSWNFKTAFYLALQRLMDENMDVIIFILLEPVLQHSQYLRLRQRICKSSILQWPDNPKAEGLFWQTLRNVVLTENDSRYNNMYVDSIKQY
Chain of human TLR9 (Q9NR96 26-1032): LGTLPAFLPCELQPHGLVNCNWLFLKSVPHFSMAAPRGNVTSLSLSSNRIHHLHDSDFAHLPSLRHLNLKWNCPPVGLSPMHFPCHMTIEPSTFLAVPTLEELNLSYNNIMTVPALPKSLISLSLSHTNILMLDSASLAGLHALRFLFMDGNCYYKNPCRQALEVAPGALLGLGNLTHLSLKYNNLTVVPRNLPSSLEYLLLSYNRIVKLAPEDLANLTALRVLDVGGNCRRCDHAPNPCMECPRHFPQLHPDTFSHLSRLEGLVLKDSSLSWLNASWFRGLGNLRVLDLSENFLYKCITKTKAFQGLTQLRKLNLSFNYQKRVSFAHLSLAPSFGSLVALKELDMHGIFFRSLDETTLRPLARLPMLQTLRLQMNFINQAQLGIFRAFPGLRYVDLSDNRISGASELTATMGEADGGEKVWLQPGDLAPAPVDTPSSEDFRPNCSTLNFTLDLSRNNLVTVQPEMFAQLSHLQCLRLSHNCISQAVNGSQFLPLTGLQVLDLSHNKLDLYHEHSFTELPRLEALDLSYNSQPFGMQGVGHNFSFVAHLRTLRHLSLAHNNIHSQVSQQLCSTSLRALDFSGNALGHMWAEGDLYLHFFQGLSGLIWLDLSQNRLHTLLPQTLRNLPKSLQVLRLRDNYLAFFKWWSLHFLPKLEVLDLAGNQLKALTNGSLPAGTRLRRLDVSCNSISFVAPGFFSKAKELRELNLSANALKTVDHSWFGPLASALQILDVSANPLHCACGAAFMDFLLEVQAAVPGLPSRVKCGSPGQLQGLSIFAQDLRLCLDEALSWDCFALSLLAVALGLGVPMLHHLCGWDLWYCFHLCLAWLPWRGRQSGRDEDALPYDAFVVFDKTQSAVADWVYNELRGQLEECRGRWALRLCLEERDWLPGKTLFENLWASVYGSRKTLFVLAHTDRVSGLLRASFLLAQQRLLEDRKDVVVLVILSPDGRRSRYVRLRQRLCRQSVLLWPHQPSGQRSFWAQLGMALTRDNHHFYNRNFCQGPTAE

With `COc1ccc(-c2[nH]c3ccc(-c4cccc(C(=O)N5CC6CNCC6C5)c4)cc3c2C(C)C)cc1OC` (stereo not drawn) [Example 9, (3-(2-(3,4-dimethoxyphenyl)-3-isopropyl-1H-indol-5-yl)phenyl)(hexahydropyrrolo[3,4-c]pyrrol-2(1H)-yl)methanone], the figures for the concentration for half-maximal inhibition (IC50) against human TLR8, on human TLR9 and against human TLR7 were 4.1 nM, 744 nM and 108 nM, respectively.

On to `COc1ccc(-c2[nH]c3ccc(-c4ccnc(C(=O)N5CCCN(C)CC5)c4)cc3c2C(C)C)cc1OC` [Example 10, (4-(2-(3,4-dimethoxyphenyl)-3-isopropyl-1H-indol-5-yl)pyridin-2-yl)(4-methyl-1,4-diazepan-1-yl)methanone], for which the results for the IC50 against human TLR8, against human TLR9 and on human TLR7 were 6 nM, 673 nM and 35 nM, respectively.

Take `COc1ccc(-c2[nH]c3ccc(-c4ccnc(C(=O)NC5CCN(C(C)C)CC5)c4)cc3c2C(C)C)cc1OC` [Example 11, 4-(2-(3,4-dimethoxyphenyl)-3-isopropyl-1H-indol-5-yl)-N-(1-isopropylpiperidin-4-yl)picolinamide]: the 50% inhibitory concentration (IC50) on human TLR8 turned out to be 18 nM; against human TLR9, 665 nM; on human TLR7 it was 22 nM.

In the case of `COc1ccc(-c2[nH]c3ccc(-c4ccnc(C(=O)NC5CCC(N)CC5)c4)cc3c2C(C)C)cc1OC` (stereo not drawn) [Example 12, N-(4-aminocyclohexyl)-4-(2-(3,4-dimethoxyphenyl)-3-isopropyl-1H-indol-5-yl)picolinamide], the IC50 on human TLR8 was 37 nM; against human TLR9 it was 2160 nM; against human TLR7, 69 nM.

Turning to `COc1ccc(-c2[nH]c3ccc(-c4ccnc(C(=O)N[C@H]5CC[C@H](C(C)(C)O)CC5)c4)cc3c2C(C)C)cc1OC` [Example 13, 4-(2-(3,4-dimethoxyphenyl)-3-isopropyl-1H-indol-5-yl)-N-((1r,4r)-4-(2-hydroxypropan-2-yl)cyclohexyl)picolinamide], the IC50 on human TLR8 is 1010 nM; against human TLR9, more than 50000 nM; on human TLR7, 1240 nM.

As to `COc1ccc(-c2[nH]c3ccc(-c4ccnc(C(=O)N5CCNCC5)c4)cc3c2C(C)C)cc1OC` [Example 14, (4-(2-(3,4-dimethoxyphenyl)-3-isopropyl-1H-indol-5-yl)pyridin-2-yl)(piperazin-1-yl)methanone], the IC50 against human TLR8 is 1040 nM; against human TLR9, more than 50000 nM; at human TLR7, 1070 nM.

For `Cc1cc(-c2[nH]c3ccc(-c4cccc(C(=O)N5CC6CNCC6C5)c4)cc3c2C(C)C)ccn1` (stereo not drawn) [Example 15, (hexahydropyrrolo[3,4-c]pyrrol-2(1H)-yl)(3-(3-isopropyl-2-(2-methylpyridin-4-yl)-1H-indol-5-yl)phenyl)methanone], the IC50 amounted to 6.8 nM against human TLR8, 738 nM against human TLR9 and 27 nM on human TLR7.

Take `Cc1cc(-c2[nH]c3ccc(-c4cccc(C(=O)NC5CCN(C(C)C)CC5)c4)cc3c2C(C)C)ccn1` [Example 16, 3-(3-isopropyl-2-(2-methylpyridin-4-yl)-1H-indol-5-yl)-N-(1-isopropylpiperidin-4-yl)benzamide]: the IC50 on human TLR8 is 39 nM; against human TLR9 it was 14000 nM; against human TLR7, 149 nM.

Take `COc1ccc(-c2[nH]c3ccc(-c4nnc(C5CCN(CC(=O)N(C)C)CC5)o4)cc3c2C(C)C)cc1OC` [Example 17, 2-(4-(5-(2-(3,4-dimethoxyphenyl)-3-isopropyl-1H-indol-5-yl)-1,3,4-oxadiazol-2-yl)piperidin-1-yl)-N,N-dimethylacetamide]: the IC50 worked out at 17 nM on human TLR8, 6440 nM on human TLR9 and 108 nM against human TLR7.

As to `CNCC(=O)N1CCC(c2nnc(-c3ccc4[nH]c(-c5ccc(OC)c(OC)c5)c(C(C)C)c4c3)o2)CC1` [Example 18, 1-(4-(5-(2-(3,4-dimethoxyphenyl)-3-isopropyl-1H-indol-5-yl)-1,3,4-oxadiazol-2-yl)piperidin-1-yl)-2-(methylamino)ethan-1-one], the IC50 at human TLR8 worked out at 9.5 nM; against human TLR9 it was 625 nM; against human TLR7, 42 nM.

As to `COc1ccc(-c2[nH]c3ccc(-c4nnc(C5CCN(C(=O)OC(C)(C)C)CC5)o4)cc3c2C(C)C)cc1OC` [Example 19, tert-butyl 4-(5-(2-(3,4-dimethoxyphenyl)-3-isopropyl-1H-indol-5-yl)-1,3,4-oxadiazol-2-yl)piperidine-1-carboxylate], the IC50 was 484 nM at human TLR8, more than 50000 nM at human TLR9 and 2510 nM on human TLR7.

With `COc1ccc(-c2[nH]c3ccc(-c4nnc(C5CCN(C)CC5)o4)cc3c2C(C)C)cc1OC` [Example 20, 2-(2-(3,4-dimethoxyphenyl)-3-isopropyl-1H-indol-5-yl)-5-(1-methylpiperidin-4-yl)-1,3,4-oxadiazole], the figures for the IC50 on human TLR8, at human TLR9 and on human TLR7 were 4.8 nM, 821 nM and 31 nM, respectively.

Consider `COc1ccc(-c2[nH]c3ccc(-c4nnc(C5CCN(C6CCN(C)CC6)CC5)o4)cc3c2C(C)C)cc1OC` [Example 21, 2-(2-(3,4-dimethoxyphenyl)-3-isopropyl-1H-indol-5-yl)-5-(1′-methyl-[1,4′-bipiperidin]-4-yl)-1,3,4-oxadiazole], for which the IC50 on human TLR8 is 20 nM; at human TLR9 it was 626 nM; against human TLR7, 60 nM.

`COc1ccc(-c2[nH]c3ccc(-c4nnc(C5CCN(C6CCN(C(C)C)CC6)CC5)o4)cc3c2C(C)C)cc1OC` [Example 22, 2-(2-(3,4-dimethoxyphenyl)-3-isopropyl-1H-indol-5-yl)-5-(1′-isopropyl-[1,4′-bipiperidin]-4-yl)-1,3,4-oxadiazole]: the IC50 is 11 nM against human TLR8, 266 nM on human TLR9 and 36 nM against human TLR7.

For the compound `CNC(=O)CN1CCC(c2nnc(-c3ccc4[nH]c(-c5ccc(OC)c(OC)c5)c(C(C)C)c4c3)o2)CC1` [Example 23, 2-(4-(5-(2-(3,4-dimethoxyphenyl)-3-isopropyl-1H-indol-5-yl)-1,3,4-oxadiazol-2-yl)piperidin-1-yl)-N-methylacetamide], the IC50 at human TLR8 is 43 nM; against human TLR9, 6100 nM; against human TLR7, 207 nM.

As for `CNCCN1CCC(c2nnc(-c3ccc4[nH]c(-c5ccc(OC)c(OC)c5)c(C(C)C)c4c3)o2)CC1` [Example 24, 2-(4-(5-(2-(3,4-dimethoxyphenyl)-3-isopropyl-1H-indol-5-yl)-1,3,4-oxadiazol-2-yl)piperidin-1-yl)-N-methylethan-1-amine], the IC50 against human TLR8 is 3.7 nM; against human TLR9 it was 179 nM; at human TLR7, 56 nM.

As to `COc1ccc(-c2[nH]c3ccc(-c4cccc(C(=O)NCCC5CCCN5C)c4)cc3c2CC(F)(F)F)cc1OC` (stereo not drawn) [Example 25, 3-(2-(3,4-dimethoxyphenyl)-3-(2,2,2-trifluoroethyl)-1H-indol-5-yl)-N-(2-(1-methylpyrrolidin-2-yl)ethyl)benzamide], the IC50 at human TLR8 worked out at 88 nM; at human TLR9, 1380 nM; against human TLR7 it was 190 nM.

For the compound `COc1ccc(-c2[nH]c3ccc(-c4cccc(C(=O)NCCNC(C)=O)c4)cc3c2CC(F)(F)F)cc1OC` [Example 26, N-(2-acetamidoethyl)-3-(2-(3,4-dimethoxyphenyl)-3-(2,2,2-trifluoroethyl)-1H-indol-5-yl)benzamide], the IC50 worked out at 73 nM at human TLR8, 32900 nM against human TLR9 and 1000 nM against human TLR7.

On to `COc1ccc(-c2[nH]c3ccc(-c4cccc(C(=O)NCC#N)c4)cc3c2CC(F)(F)F)cc1OC` [Example 27, N-(cyanomethyl)-3-(2-(3,4-dimethoxyphenyl)-3-(2,2,2-trifluoroethyl)-1H-indol-5-yl)benzamide], for which the concentration for half-maximal inhibition (IC50) was 82 nM on human TLR8, 41100 nM on human TLR9 and 744 nM on human TLR7.

Take `COc1ccc(-c2[nH]c3ccc(-c4cccc(C(=O)NCC(N)=O)c4)cc3c2CC(F)(F)F)cc1OC` [Example 28, N-(2-amino-2-oxoethyl)-3-(2-(3,4-dimethoxyphenyl)-3-(2,2,2-trifluoroethyl)-1H-indol-5-yl)benzamide]: the IC50 against human TLR8 was found to be 94 nM; at human TLR9, 32600 nM; on human TLR7, 587 nM.

On to `COc1ccc(-c2[nH]c3ccc(-c4cccc(C(=O)NCCN5CCOCC5)c4)cc3c2CC(F)(F)F)cc1OC` [Example 29, 3-(2-(3,4-dimethoxyphenyl)-3-(2,2,2-trifluoroethyl)-1H-indol-5-yl)-N-(2-morpholinoethyl)benzamide], for which the values for the IC50 at human TLR8, against human TLR9 and at human TLR7 were 55 nM, 7290 nM and 416 nM, respectively.

Regarding `COc1ccc(-c2[nH]c3ccc(-c4cccc(C(=O)N5CCN(CC(=O)NC(C)C)CC5)c4)cc3c2CC(F)(F)F)cc1OC` [Example 30, 2-(4-(3-(2-(3,4-dimethoxyphenyl)-3-(2,2,2-trifluoroethyl)-1H-indol-5-yl)benzoyl)piperazin-1-yl)-N-isopropylacetamide], the half-maximal inhibitory concentration (IC50) on human TLR8 worked out at 165 nM; against human TLR9, 14300 nM; at human TLR7, 1990 nM.
